Laboratory results: patent US7468384B2, “Microbicidal composition” (Rohm and Haas Company, priority 2004, dated 2008)

Tests used:
Type in all cases: cell-based
[1] = tested on: Escherichia coli (E. coli—ATCC #8739); assay: Synergy test, microtiter plate high resolution MIC assay, bacterium; conditions: E. coli 8739, M9GY; for Qa: BIT concentration giving end point (MIC); for Qa (BIT at end point, MIC): alone where Qb = 0
Summary of the method: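 High-resolution MICs were found by adding microbicide to one microtitre column and making ten-fold dilutions with an automated liquid handler, giving endpoints from 2 ppm to 10,000 ppm active ingredient. The MIC is the lowest concentration that prevents growth. E. coli 8739, at roughly 5×10^6 cells per mL, grew in glucose/yeast-extract-supplemented minimal salt medium (M9GY). Values above one indicate antagonism.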

[2] = tested on: Pseudomonas aeruginosa (P. aeruginosa—ATCC #15442); assay: as above; set-up: key to SI (calculated synergy index) / SI (synergy index): SI = Qa/QA + Qb/QB (mixture vs. alone end-point concentrations); conditions: P. aeruginosa 15442, M9GY; for Qa: BIT concentration giving end point (MIC); for Qa (BIT at end point, MIC): alone where Qb = 0
Summary of the method: (§1)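 Values derive from Kull synergy index (Qa/QA + Qb/QB, ppm MIC endpoints, alone vs in mixture). Endpoints from high-resolution microtiter MICs spanning 2–10,000 ppm; bacterium ~5×10^6/mL in TSB or M9GY, yeast and mold 5×10^5/mL in PDB.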

[3] = tested on: Candida albicans (C. albicans—ATCC 10231); assay: Synergy test, microtiter plate high resolution MIC assay, yeast; conditions: C. albicans 10231, PDB; for Qa: BIT concentration giving end point (MIC); for Qa (BIT at end point, MIC): alone where Qb = 0
Summary of the method: as §1

[4] = tested on: Aspergillus niger (A. niger—ATCC 16404); assay: Synergy test, microtiter plate high resolution MIC assay, mold; set-up: key to SI (calculated synergy index) / SI (synergy index): SI = Qa/QA + Qb/QB (mixture vs. alone end-point concentrations); conditions: A. niger 16404, PDB; for Qa: BIT concentration giving end point (MIC); for Qa (BIT at end point, MIC): alone where Qb = 0
Summary of the method: as §1

[5] = alone or mixed with Imidalozidinyl urea, 48 hours
[6] = alone or mixed with caprylyl glycol, 24 hours
[7] = alone or mixed with diazolidinyl urea, 48 hours
[8] = alone or mixed with glutaraldehyde, 24 hours
[9] = Table 25, BIT with sodium dehydroacetic acid, 24 hours
[10] = Table 26, BIT with sodium benzoate, 24 hours
[11] = synergy index BIT + Imidalozidinyl urea, 48 hours
[12] = synergy index BIT + caprylyl glycol, 24 hours
[13] = synergy index BIT + diazolidinyl urea, 48 hours
[14] = synergy index BIT + glutaraldehyde, 24 hours
[15] = alone or mixed with benzyl alcohol, 48 hours
[16] = Table 24, BIT with Cis-1-(3-chloroallyl)-3,5,7-triaza-1-azoniaadamantane chloride, 24 hours
[17] = synergy index BIT + benzyl alcohol, 48 hours

For `O=c1[nH]sc2ccccc12` [BIT, 1,2-benzisothiazolin-3-one], the Qa [1, 5] was 7.5 ppm, the Qa ([1]; alone or mixed with benzyl alcohol, 24 hours) was 7.5 ppm and the Qa [1, 6] was 7.5 ppm. The Qa [1, 7] was 8 ppm, the Qa [1, 8] was 10 ppm and the “Qa (BIT at end point, MIC)” value ([1]; Table 24, BIT with Cis-1-(3-chloroallyl)-3,5,7-triaza-1-azoniaadamantane chloride, 48 hours) was 10 ppm. For the same compound, the “SI (synergy index)” value ([1]; Table 24, 48 hours) was 1.00, the “Qa (BIT at end point, MIC)” value [1, 9] was 7.5 ppm and the “SI (synergy index)” value ([1]; Table 25, 24 hours) was 1.00. The “Qa (BIT at end point, MIC)” value [1, 10] was 7.5 ppm, the “SI (synergy index)” value ([1]; Table 26, 24 hours) was 1.00 and the SI [1, 11] was 1.00. The SI ([1]; synergy index BIT + benzyl alcohol, 24 hours) was 1.00, the SI [1, 12] was 1.00 and the SI [1, 13] was 1.00. It also gave an SI [1, 14] of 1.00, a Qa ([2]; alone or mixed with 2,2′-dithiobis(N-methylbenzamide), 48 hours) of 100 ppm and a Qa [2, 5] of 100 ppm. The Qa [2, 15] was 100 ppm, the Qa [2, 6] was 100 ppm and the Qa ([2]; alone or mixed with chlorphenesin, 72 hours) was 100 ppm. For the same compound, the Qa [2, 7] was 100 ppm, the Qa ([2]; alone or mixed with ethylparaben, 48 hours) was 100 ppm and the Qa ([2]; alone or mixed with glutaraldehyde, 48 hours) was 60 ppm. For the same compound, the Qa ([2]; alone or mixed with methylparaben, 48 hours) was 100 ppm, the Qa ([2]; alone or mixed with phenoxyethanol, 48 hours) was 100 ppm and the “SI (calculated synergy index)” value ([2]; Table 8, 48 hours) was 1.00. For the same compound, the “Qa: end-point activity (MIC) of BIT in the mixture (BIT alone, QA, where Qb = 0)” value (“Qa: end-point activity (MIC) of BIT” for short) ([2]; Table 8, 48 hours, B = Benzalkonium chloride) was 100 ppm, the “SI (calculated synergy index)” value ([2]; Table 9, 48 hours) was 1.00 and the “Qa: end-point activity (MIC) of BIT” value ([2]; Table 9, 48 hours, B = Benzethonium chloride) was 100 ppm. The “Qa (BIT at end point, MIC)” value ([2]; Table 21, BIT with Linoleamidopropyl PG-dimonium chloride phosphate, 48 hours) was 100 ppm, the “SI (synergy index)” value ([2]; Table 21, 48 hours) was 1.00 and the “Qa (BIT at end point, MIC)” value ([2]; Table 22, BIT with Cocamidopropyl PG-dimonium chloride phosphate, 72 hours) was 100 ppm. The “SI (synergy index)” value ([2]; Table 22, 72 hours) was 1.00, the “Qa (BIT at end point, MIC)” value ([2]; Table 23, BIT with propylparaben, 24 hours) was 80 ppm and the “SI (synergy index)” value ([2]; Table 23, 24 hours) was 1.33. The “Qa (BIT at end point, MIC)” value [2, 16] was 60 ppm, the “SI (synergy index)” value ([2]; Table 24, 24 hours) was 1.00 and the “Qa (BIT at end point, MIC)” value [2, 9] was 60 ppm. The “SI (synergy index)” value ([2]; Table 25, 24 hours) was 1.00, the “Qa (BIT at end point, MIC)” value [2, 10] was 60 ppm and the “SI (synergy index)” value ([2]; Table 26, 24 hours) was 1.00. For the same compound, the “Qa (BIT at end point, MIC)” value ([2]; Table 27, BIT with Sodium hydroxymethylglycinate, 24 hours) was 60 ppm, the “SI (synergy index)” value ([2]; Table 27, 24 hours) was 1.00 and the “Qa (BIT at end point, MIC)” value ([2]; Table 28, BIT with zinc pyrithione, 48 hours) was 100 ppm. The “SI (synergy index)” value ([2]; Table 28, 48 hours) was 1.00, the SI ([2]; synergy index BIT + 2,2′-dithiobis(N-methylbenzamide), 48 hours) was 1.00 and the SI [2, 11] was 1.00. It also gave an SI [2, 17] of 1.00, an SI [2, 12] of 1.00 and an SI ([2]; synergy index BIT + chlorphenesin, 72 hours) of 1.00. For the same compound, the SI [2, 13] was 1.00, the SI ([2]; synergy index BIT + ethylparaben, 48 hours) was 1.00 and the SI ([2]; synergy index BIT + glutaraldehyde, 48 hours) was 1.00. The SI ([2]; synergy index BIT + methylparaben, 48 hours) was 1.00, the SI ([2]; synergy index BIT + phenoxyethanol, 48 hours) was 1.00 and the Qa ([3]; alone or mixed with Imidalozidinyl urea, 24 hours) was 30 ppm. It also gave a Qa [3, 15] of 30 ppm, a Qa [3, 6] of 30 ppm and a Qa ([3]; alone or mixed with diazolidinyl urea, 24 hours) of 30 ppm. The Qa [3, 8] was 30 ppm, the “Qa (BIT at end point, MIC)” value [3, 16] was 20 ppm and the “SI (synergy index)” value ([3]; Table 24, 24 hours) was 1.00. For the same compound, the “Qa (BIT at end point, MIC)” value [3, 9] was 30 ppm, the “SI (synergy index)” value ([3]; Table 25, 24 hours) was 1.00 and the “Qa (BIT at end point, MIC)” value ([3]; Table 26, BIT with sodium benzoate, 48 hours) was 30 ppm. For the same compound, the “SI (synergy index)” value ([3]; Table 26, 48 hours) was 1.00, the SI ([3]; synergy index BIT + Imidalozidinyl urea, 24 hours) was 1.00 and the SI [3, 17] was 1.00. It also gave an SI [3, 12] of 1.00, an SI ([3]; synergy index BIT + diazolidinyl urea, 24 hours) of 1.00 and an SI [3, 14] of 1.00. It also gave a Qa ([4]; alone or mixed with 2,2′-dithiobis(N-methylbenzamide), 3 days) of 20 ppm, a Qa ([4]; alone or mixed with EDTA, 4 days) of 20 ppm and a Qa ([4]; alone or mixed with Imidalozidinyl urea, 3 days) of 20 ppm. For the same compound, the Qa ([4]; alone or mixed with benzyl alcohol, 1 week) was 50 ppm, the Qa ([4]; alone or mixed with caprylyl glycol, 1 week) was 50 ppm and the Qa ([4]; alone or mixed with chlorphenesin, 1 week) was 50 ppm. The Qa ([4]; alone or mixed with diazolidinyl urea, 3 days) was 20 ppm, the Qa ([4]; alone or mixed with ethylparaben, 3 days) was 20 ppm and the Qa ([4]; alone or mixed with glutaraldehyde, 3 days) was 20 ppm. The Qa ([4]; alone or mixed with methylparaben, 4 days) was 30 ppm, the Qa ([4]; alone or mixed with phenoxyethanol, 3 days) was 20 ppm and the “SI (calculated synergy index)” value ([4]; Table 8, 1 week) was 1.00. For the same compound, the “Qa: end-point activity (MIC) of BIT” value ([4]; Table 8, 1 week, B = Benzalkonium chloride) was 30 ppm, the “SI (calculated synergy index)” value ([4]; Table 9, 4 days) was 1.00 and the “Qa: end-point activity (MIC) of BIT” value ([4]; Table 9, 4 days, B = Benzethonium chloride) was 30 ppm. The “SI (synergy index)” value ([4]; Table 21, 4 days) was 1.00, the “Qa (BIT at end point, MIC)” value ([4]; Table 21, BIT with Linoleamidopropyl PG-dimonium chloride phosphate, 4 days) was 30 ppm and the “SI (synergy index)” value ([4]; Table 22, 1 week) was 1.00. The “Qa (BIT at end point, MIC)” value ([4]; Table 22, BIT with Cocamidopropyl PG-dimonium chloride phosphate, 1 week) was 30 ppm, the “SI (synergy index)” value ([4]; Table 23, 3 days) was 1.00 and the “Qa (BIT at end point, MIC)” value ([4]; Table 23, BIT with propylparaben, 3 days) was 20 ppm. The “SI (synergy index)” value ([4]; Table 24, 3 days) was 1.00, the “Qa (BIT at end point, MIC)” value ([4]; Table 24, BIT with Cis-1-(3-chloroallyl)-3,5,7-triaza-1-azoniaadamantane chloride, 3 days) was 30 ppm and the “SI (synergy index)” value ([4]; Table 25, 1 week) was 1.00. The “Qa (BIT at end point, MIC)” value ([4]; Table 25, BIT with sodium dehydroacetic acid, 1 week) was 30 ppm, the “SI (synergy index)” value ([4]; Table 26, 1 week) was 1.00 and the “Qa (BIT at end point, MIC)” value ([4]; Table 26, BIT with sodium benzoate, 1 week) was 30 ppm. For the same compound, the “SI (synergy index)” value ([4]; Table 27, 3 days) was 1.00, the “Qa (BIT at end point, MIC)” value ([4]; Table 27, BIT with Sodium hydroxymethylglycinate, 3 days) was 20 ppm and the “SI (synergy index)” value ([4]; Table 28, 1 week) was 1.00. The “Qa (BIT at end point, MIC)” value ([4]; Table 28, BIT with zinc pyrithione, 1 week) was 30 ppm, the SI ([4]; synergy index BIT + 2,2′-dithiobis(N-methylbenzamide), 3 days) was 1.00 and the SI ([4]; synergy index BIT + EDTA, 4 days) was 1.00. For the same compound, the SI ([4]; synergy index BIT + Imidalozidinyl urea, 3 days) was 1.00, the SI ([4]; synergy index BIT + benzyl alcohol, 1 week) was 1.00 and the SI ([4]; synergy index BIT + caprylyl glycol, 1 week) was 1.00. The SI ([4]; synergy index BIT + chlorphenesin, 1 week) was 1.00, the SI ([4]; synergy index BIT + diazolidinyl urea, 3 days) was 1.00 and the SI ([4]; synergy index BIT + ethylparaben, 3 days) was 1.00. For the same compound, the SI ([4]; synergy index BIT + glutaraldehyde, 3 days) was 1.00, the SI ([4]; synergy index BIT + methylparaben, 4 days) was 1.00 and the SI ([4]; synergy index BIT + phenoxyethanol, 3 days) was 1.00.
